# Measured values from patent US20240148821A1, “PHARMACEUTICAL USE OF CYCLIC PEPTIDE COMPOUND” (CHUGAI SEIYAKU KABUSHIKI KAISHA, priority 2021, published 2024).
# Numbered stars: 1 amine (or outer) side, 2 acyl side, 3 side chain; on linkers, the order of the positions; unused ones are H or OH. Bridge positions count the residues as written; N and C are the ends. Square brackets hold non-standard residues; d marks the D form. Peptide text beside a SMILES is read from it. * marks the point of attachment. hPhe(3,5-F2-4-CF3) = N[C@@H](CCc1cc(F)c(C(F)(F)F)c(F)c1)C(=O)O; hPhe(3-Cl-4-CF3) = N[C@@H](CCc1ccc(C(F)(F)F)c(Cl)c1)C(=O)O; NEtPhe(4-CF3) = CCN[C@@H](Cc1ccc(C(F)(F)F)cc1)C(=O)O; NMePhe(4-CF3) = CN[C@@H](Cc1ccc(C(F)(F)F)cc1)C(=O)O; hPhe(4-CF3) = N[C@@H](CCc1ccc(C(F)(F)F)cc1)C(=O)O; NMePhe(4-Cl) = CN[C@@H](Cc1ccc(Cl)cc1)C(=O)O; X61 = O=C(CN(CCCN1CCC(F)(F)CC1)[*:1])[*:2]; hPhe(4-Cl) = N[C@@H](CCc1ccc(Cl)cc1)C(=O)O; NMedβ3hAla = C[C@H](CC(=O)[*:2])N(C)[*:1]; NMeGly(cPent) = CN[C@H](C(=O)O)C1CCCC1; Pro(4,4-F2) = O=C(O)[C@@H]1CC(F)(F)CN1; NMeCha = CN[C@@H](CC1CCCCC1)C(=O)O; Hyp = O=C(O)[C@@H]1C[C@@H](O)CN1; NMeChg = CN[C@H](C(=O)O)C1CCCCC1; NMeF = CN[C@@H](Cc1ccccc1)C(=O)O; NMeI = CC[C@H](C)[C@H](NC)C(=O)O; X17 = FC1(F)CN(*)CC(F)(F)C1(F)F; NMeD = CN[C@@H](CC(=O)O)C(=O)O; dNMeD = CN[C@H](CC(=O)O)C(=O)O; NMeL = CN[C@@H](CC(C)C)C(=O)O; NMeNle = CCCC[C@H](NC)C(=O)O; NMeV = CN[C@H](C(=O)O)C(C)C; d(β3hA) = C[C@@H](N)CC(=O)O; NMeS = CN[C@@H](CO)C(=O)O; NMeA = CN[C@@H](C)C(=O)O; Piperidide = C1CCN(*)CC1; Pyrrolidide = C1CCN(*)C1; dNMeA = CN[C@H](C)C(=O)O; Ac5c = NC1(C(=O)O)CCCC1; Aze = O=C(O)[C@@H]1CCN1; Ac4c = NC1(C(=O)O)CCC1; Aib = CC(C)(N)C(=O)O; Sar = CNCC(=O)O; Propyl = CCC*
# Molecular target: protein-protein interaction between Kras and SOS1 (biotin-tagged human Kras loaded with GDP, His-tagged human SOS1) (Homo sapiens (Human), UniProt P01116, G12D)
# Experiment: Protein-protein interaction inhibition between Kras and SOS1 (KrasG12D-SOS PPI) using AlphaScreen;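 note: kras produced in E. coli, Ni-coupled donor beads and streptavidin acceptor beads, excitation 680 nm with emission detected at 520–620 nm via singlet oxygen transfer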
# Assay type: biochemical
# Details: AlphaScreen; biotin-tagged human Kras loaded with GDP, His-tagged human SOS1; read-out: KRAS G12D-SOS PPI IC50
row,SMILES,IC50 [µM]
1,"CCO[C@@H]1C[C@H]2C(=O)NC3(CCCC3)C(=O)N(C)[C@@H](C3CCCC3)C(=O)N(C)[C@H](C)CC(=O)N(C)[C@@H](CC(C)C)C(=O)N[C@@H]([C@@H](C)CC)C(=O)N[C@@H](C)C(=O)N3CC[C@H]3C(=O)N(CC)[C@@H](Cc3ccc(C(F)(F)F)cc3)C(=O)N(C)CC(=O)N[C@@H](CCc3cc(F)c(C(F)(F)F)c(F)c3)C(=O)N2C1 [Compound 785] (cyclo(A[Aze][NEtPhe(4-CF3)][Sar][hPhe(3,5-F2-4-CF3)][Hyp](Et)[Ac5c][NMeGly(cPent)][NMedβ3hAla][NMeL]I))",0.0035
2,CC[C@H](C)[C@@H]1NC(=O)[C@H](CC(C)C)N(C)C(=O)C[C@@H](C(=O)N2CCCCC2)N(C)C(=O)[C@H](C(C)C)N(C)C(=O)C2(CCCC2)NC(=O)[C@@H]2CCCN2C(=O)[C@H](CCc2ccc(Cl)cc2)NC(=O)CN(C)C(=O)[C@H](CC2CCCCC2)N(C)C(=O)[C@@H]2CCN2C(=O)CN(C)C1=O [Compound 916] ([NMeL]I[Sar][Aze][NMeCha][Sar][hPhe(4-Cl)]P[Ac5c][NMeV][NMeD]-Piperidide; lactam N-11),0.042
3,CC[C@H](C)[C@@H]1NC(=O)[C@H](CC(C)C)N(C)C(=O)C[C@H](C(=O)N2CCCC2)N(C)C(=O)[C@H](C2CCCC2)N(C)C(=O)C2(CCCC2)NC(=O)[C@@H]2CCCN2C(=O)[C@H](CCc2ccc(C(F)(F)F)c(Cl)c2)NC(=O)CN(C)C(=O)[C@H](Cc2ccc(C(F)(F)F)cc2)N(C)C(=O)[C@@H]2CCN2C(=O)[C@H](C)N(C)C1=O [Compound 1765] ([NMeL]I[NMeA][Aze][NMePhe(4-CF3)][Sar][hPhe(3-Cl-4-CF3)]P[Ac5c][NMeGly(cPent)][dNMeD]-Pyrrolidide; lactam N-11),0.074
4,CCO[C@@H]1C[C@H]2C(=O)NC3(CCCC3)C(=O)N(C)[C@@H](C3CCCC3)C(=O)N(C)[C@H](C)CC(=O)N(C)[C@@H](CC(C)C)C(=O)N[C@@H]([C@@H](C)CC)C(=O)N(C)CC(=O)N(C)CC(=O)N(C)[C@@H](Cc3ccc(C(F)(F)F)cc3)C(=O)N(C)CC(=O)N[C@@H](CCc3ccc(C(F)(F)F)c(Cl)c3)C(=O)N2C1 [Compound 541] (cyclo([Ac5c][NMeGly(cPent)][NMedβ3hAla][NMeL]I[Sar][Sar][NMePhe(4-CF3)][Sar][hPhe(3-Cl-4-CF3)][Hyp](Et))),0.0043
5,CCCOC[C@H]1C(=O)N2CC[C@H]2C(=O)N(C)[C@@H](CC2CCCCC2)C(=O)N(C)[C@H](C)C(=O)N[C@@H](CCc2ccc(C(F)(F)F)c(Cl)c2)C(=O)N2CCC[C@H]2C(=O)NC2(CCCC2)C(=O)N(C)[C@@H](C(C)C)C(=O)N[C@H](C)CC(=O)N(C)[C@@H](C)C(=O)N[C@@H]([C@@H](C)CC)C(=O)N1C [Compound 2016] (cyclo([Ac5c][NMeV][d(β3hA)][NMeA]I[NMeS](Propyl)[Aze][NMeCha][dNMeA][hPhe(3-Cl-4-CF3)]P)),0.27
6,CC[C@H](C)[C@@H]1NC(=O)[C@H](CC(C)C)N(C)C(=O)C[C@@H](C(=O)N2CC(F)(F)C(F)(F)C(F)(F)C2)NC(=O)[C@H]([C@@H](C)CC)N(C)C(=O)C2(CCCC2)NC(=O)[C@@H]2CCCN2C(=O)[C@H](CCc2ccc(C(F)(F)F)c(Cl)c2)NC(=O)CN(C)C(=O)[C@H](CC2CCCCC2)N(C)C(=O)CN(C)C(=O)CN(C)C1=O [Compound 1265] ([NMeL]I[Sar][Sar][NMeCha][Sar][hPhe(3-Cl-4-CF3)]P[Ac5c][NMeI]D-X17; lactam N-11),0.28
7,"CC[C@H](C)[C@@H]1NC(=O)[C@H](CC(C)C)N(C)C(=O)C[C@@H](C(=O)N2CCCCC2)N(C)C(=O)[C@H](CC(C)C)NC(=O)C(C)(C)N(C)C(=O)[C@H](COc2ccccc2)NC(=O)[C@H](Cc2cccc(I)c2)NC(=O)CN(C)C(=O)[C@H](Cc2ccc(C)cc2)N(C)C(=O)[C@@H]2CCN2C(=O)CN(C)C1=O [Compound 2114, (6S,9S,13S,16S,22S,25S,31S,34S)-25-[(3-iodophenyl)methyl]-9,16-diisobutyl-4,10,14,19,19,20,29,32-octamethyl-6-[(1S)-1-methylpropyl]-22-(phenoxymethyl)-13-(piperidine-1-carbonyl)-31-(p-tolylmethyl)-1,4,7,10,14,17,20,23,26,29,32-undecazabicyclo[32.2.0]hexatriacontane-2,5,8,11,15,18,21,24,27,30,33-undecone]",0.11
8,CC[C@H](C)[C@@H]1NC(=O)[C@H](CC(C)C)N(C)C(=O)C[C@@H](C(=O)N2CCCCC2)N(C)C(=O)[C@H](C2CCCCC2)N(C)C(=O)C2(CCCC2)NC(=O)CN(CCCN2CCC(F)(F)CC2)C(=O)[C@H](CCc2ccc(C(F)(F)F)c(Cl)c2)NC(=O)CN(C)C(=O)[C@H](CC2CCCCC2)N(C)C(=O)CN(C)C(=O)CN(C)C1=O [Compound 2021] ([NMeL]I[Sar][Sar][NMeCha][Sar][hPhe(3-Cl-4-CF3)][X61][Ac5c][NMeChg][NMeD]-Piperidide; lactam N-11),0.0028
9,CCCC[C@H]1C(=O)N[C@@H]([C@@H](C)CC)C(=O)N(C)[C@@H](C)C(=O)N2CC[C@H]2C(=O)N(C)[C@@H](CC2CCCCC2)C(=O)N(C)CC(=O)N[C@@H](CCc2ccc(C(F)(F)F)c(Cl)c2)C(=O)N2CCC[C@H]2C(=O)NC2(CCCC2)C(=O)N(C)[C@@H](C(C)C)C(=O)N(C)[C@H](C(=O)N2CCCCC2)CC(=O)N1C [Compound 1616] ([NMeNle]I[NMeA][Aze][NMeCha][Sar][hPhe(3-Cl-4-CF3)]P[Ac5c][NMeV][NMeD]-Piperidide; lactam N-11),0.012
10,CC[C@H](C)[C@@H]1NC(=O)[C@H](C)N(C)C(=O)C[C@@H](C)NC(=O)[C@H](C(C)C)N(C)C(=O)C2(CCCC2)NC(=O)[C@@H]2CCCN2C(=O)[C@H](CCc2ccc(C(F)(F)F)c(Cl)c2)NC(=O)[C@@H](C)N(C)C(=O)[C@H](CC2CCCCC2)N(C)C(=O)[C@@H]2CCN2C(=O)CN(C)C1=O [Compound 601] (cyclo([Ac5c][NMeV][d(β3hA)][NMeA]I[Sar][Aze][NMeCha][dNMeA][hPhe(3-Cl-4-CF3)]P)),0.087
11,"CC[C@H](C)[C@@H]1NC(=O)[C@H](CC(C)C)N(C)C(=O)C[C@@H](C)N(C)C(=O)[C@H]([C@@H](C)CC)N(C)C(=O)C2(CCC2)NC(=O)[C@@H]2CC(F)(F)CN2C(=O)[C@H](CCc2cc(F)c(C(F)(F)F)c(F)c2)NC(=O)CN(C)C(=O)[C@H](Cc2ccc(C(F)(F)F)cc2)N(CC)C(=O)[C@@H]2CCN2C(=O)[C@H](C)N(C)C1=O [Compound 85] (cyclo([Ac4c][NMeI][NMedβ3hAla][NMeL]I[NMeA][Aze][NEtPhe(4-CF3)][Sar][hPhe(3,5-F2-4-CF3)][Pro(4,4-F2)]))",0.015
12,CC[C@H](C)[C@@H]1NC(=O)[C@H](C)N(C)C(=O)C[C@@H](C)NC(=O)[C@H](CC(C)C)N(C)C(=O)C(C)(C)NC(=O)[C@H](CC(C)C)N(C)C(=O)[C@H](CCc2ccc(Cl)cc2)NC(=O)CN(C)C(=O)[C@H](Cc2ccc(Cl)cc2)N(C)C(=O)CN(C)C(=O)CN(C)C1=O [Compound 19] (cyclo([Aib][NMeL][d(β3hA)][NMeA]I[Sar][Sar][NMePhe(4-Cl)][Sar][hPhe(4-Cl)][NMeL])),0.05
13,CCO[C@@H]1C[C@H]2C(=O)N(C)[C@@H](Cc3ccccc3)C(=O)N(C)[C@@H](CC(C)C)C(=O)N[C@H](C)CC(=O)N(C)[C@@H](C)C(=O)N[C@@H]([C@@H](C)CC)C(=O)N(C)CC(=O)N(C)CC(=O)N(C)[C@@H](Cc3ccc(Cl)cc3)C(=O)N(C)CC(=O)N[C@@H](CCc3ccc(C(F)(F)F)cc3)C(=O)N2C1 [Compound 322] (cyclo([Hyp](Et)[NMeF][NMeL][d(β3hA)][NMeA]I[Sar][Sar][NMePhe(4-Cl)][Sar][hPhe(4-CF3)])),0.031
